Assay results published in article PMC5218480 (PLoS ONE, 2017).

System: MV-4-11 cells
Assay: Gene expression microarray analysis (Affymetrix PrimeView) and GSEA
Format: cell-based, human
Parameters: RFU PODN (11730768_x_at) / Fold change /veh PODN (11730768_x_at) / RFU LINC00158 (11744669_a_at) / Fold change /veh LINC00158 (11744669_a_at) / RFU DUSP10 (11751237_a_at) / Fold change /veh DUSP10 (11751237_a_at) / RFU ID3 (11757404_x_at) / Fold change /veh ID3 (11757404_x_at) / RFU PLEKHG5 (11737974_s_at) / Fold change /veh PLEKHG5 (11737974_s_at) / RFU LRRC4B (11730491_at) / Fold change /veh LRRC4B (11730491_at) / RFU GIMAP4 (11747438_a_at) / Fold change /veh GIMAP4 (11747438_a_at) / RFU KRT8 (11758183_x_at) / Fold change /veh KRT8 (11758183_x_at) / RFU CNN1 (11734310_a_at) / Fold change /veh CNN1 (11734310_a_at) / RFU VPS37D (11726825_at) / Fold change /veh VPS37D (11726825_at) / RFU C10orf10 (11716522_x_at) / Fold change /veh C10orf10 (11716522_x_at) / RFU KIR2DL2 /// KIR2DL4 /// KIR2DL5A /// KIR2DL5B /// KIR2DS1 /// KIR2DS2 /// KIR2DS3 /// KIR2DS4 /// KIR3DL3 /// KIR3DL3 /// KIR3DS1 (11738374_at) / Fold change /veh KIR2DL2 /// KIR2DL4 /// KIR2DL5A /// KIR2DL5B /// KIR2DS1 /// KIR2DS2 /// KIR2DS3 /// KIR2DS4 /// KIR3DL3 /// KIR3DL3 /// KIR3DS1 (11738374_at) / RFU C1QL1 (11718748_at) / Fold change /veh C1QL1 (11718748_at) / RFU TMPRSS4 (11747572_a_at) / Fold change /veh TMPRSS4 (11747572_a_at) / RFU HAMP (11756126_x_at) / Fold change /veh HAMP (11756126_x_at) / RFU RNFT2 (11725882_a_at) / Fold change /veh RNFT2 (11725882_a_at) / RFU NR4A2 (11747474_a_at) / Fold change /veh NR4A2 (11747474_a_at) / RFU ABCC12 (11746883_a_at) / Fold change /veh ABCC12 (11746883_a_at) / RFU TMEM136 (11760407_x_at) / Fold change /veh TMEM136 (11760407_x_at) / RFU CLDN22 /// WWC2 (11732394_at) / Fold change /veh CLDN22 /// WWC2 (11732394_at) / RFU HLA-DPB1 (11760878_x_at) / Fold change /veh HLA-DPB1 (11760878_x_at) / RFU SPINT1 (11716480_a_at) / Fold change /veh SPINT1 (11716480_a_at) / RFU GAP43 (11754022_s_at) / Fold change /veh GAP43 (11754022_s_at) / RFU A4GNT (11735810_at) / Fold change /veh A4GNT (11735810_at) / RFU PRB3 (11715151_x_at) / Fold change /veh PRB3 (11715151_x_at) / RFU TUBB4B (11761932_at) / Fold change /veh TUBB4B (11761932_at) / RFU CAPN14 (11732068_a_at) / Fold change /veh CAPN14 (11732068_a_at) / RFU TMCC2 (11721928_a_at) / Fold change /veh TMCC2 (11721928_a_at) / RFU IRGQ (11745062_a_at) / Fold change /veh IRGQ (11745062_a_at) / RFU FAM174B (11720279_a_at) / Fold change /veh FAM174B (11720279_a_at) / RFU TMPRSS4 (11748680_a_at) / Fold change /veh TMPRSS4 (11748680_a_at) / RFU FAM212B (11763350_a_at) / Fold change /veh FAM212B (11763350_a_at) / RFU PLEKHG5 (11743358_a_at) / Fold change /veh PLEKHG5 (11743358_a_at) / RFU ZSCAN30 (11745921_a_at) / Fold change /veh ZSCAN30 (11745921_a_at) / RFU CMKLR1 (11741424_a_at) / Fold change /veh CMKLR1 (11741424_a_at) / RFU LOC101060620 /// MAPK8IP1 (11723275_at) / Fold change /veh LOC101060620 /// MAPK8IP1 (11723275_at) / RFU SPTSSB (11747773_x_at) / Fold change /veh SPTSSB (11747773_x_at) / RFU PRSS12 (11739890_at) / Fold change /veh PRSS12 (11739890_at) / RFU BIN1 (11741810_x_at) / Fold change /veh BIN1 (11741810_x_at) / RFU WNT11 (11732464_a_at) / Fold change /veh WNT11 (11732464_a_at) / RFU C10orf10 (11716521_a_at) / Fold change /veh C10orf10 (11716521_a_at) / RFU C5orf56 (11738089_at) / Fold change /veh C5orf56 (11738089_at) / RFU CYB561 (11721691_x_at) / Fold change /veh CYB561 (11721691_x_at) / RFU ANKRD19P (11752326_a_at) / Fold change /veh ANKRD19P (11752326_a_at) / RFU OR2T12 /// OR2T33 /// OR2T8 (11738714_s_at) / Fold change /veh OR2T12 /// OR2T33 /// OR2T8 (11738714_s_at) / RFU VCAN (11748164_a_at) / Fold change /veh VCAN (11748164_a_at) / RFU JSRP1 (11732532_at) / Fold change /veh JSRP1 (11732532_at) / RFU KRTAP10-11 (11738290_x_at) / Fold change /veh KRTAP10-11 (11738290_x_at) / RFU MYO3A (11730013_a_at) / Fold change /veh MYO3A (11730013_a_at) / RFU EBF3 (11725865_a_at) / Fold change /veh EBF3 (11725865_a_at) / RFU CAMK2N1 (11719241_x_at) / Fold change /veh CAMK2N1 (11719241_x_at) / RFU C5orf56 (11738088_a_at) / Fold change /veh C5orf56 (11738088_a_at) / RFU OLFML3 (11715873_a_at) / Fold change /veh OLFML3 (11715873_a_at) / RFU LOC100653217 /// NTM (11731650_a_at) / Fold change /veh LOC100653217 /// NTM (11731650_a_at) / RFU MAPK11 (11762145_a_at) / Fold change /veh MAPK11 (11762145_a_at) / RFU FIZ1 (11724087_x_at) / Fold change /veh FIZ1 (11724087_x_at) / RFU OASL (11726364_x_at) / Fold change /veh OASL (11726364_x_at) / RFU SOX15 (11748057_x_at) / Fold change /veh SOX15 (11748057_x_at) / RFU CD79A (11719716_a_at) / Fold change /veh CD79A (11719716_a_at) / RFU HIST1H1D (11736915_at) / Fold change /veh HIST1H1D (11736915_at) / RFU CASKIN2 (11723855_a_at) / Fold change /veh CASKIN2 (11723855_a_at) / RFU LOC730098 (11760151_x_at) / Fold change /veh LOC730098 (11760151_x_at) / RFU OR4N2 (11742367_at) / Fold change /veh OR4N2 (11742367_at) / RFU PRRT2 (11749266_a_at) / Fold change /veh PRRT2 (11749266_a_at) / RFU SNX32 (11753110_a_at) / Fold change /veh SNX32 (11753110_a_at) / RFU CDHR5 (11726645_a_at) / Fold change /veh CDHR5 (11726645_a_at) / RFU RCAN1 (11760418_a_at) / Fold change /veh RCAN1 (11760418_a_at) / RFU FAM167A (11723789_a_at) / Fold change /veh FAM167A (11723789_a_at) / RFU FAM26E (11764081_at) / Fold change /veh FAM26E (11764081_at) / RFU ISYNA1 (11749810_s_at) / Fold change /veh ISYNA1 (11749810_s_at) / RFU ACY1 (11761880_at) / Fold change /veh ACY1 (11761880_at) / RFU 11764098_at / Fold change /veh 11764098_at / RFU SAMD14 (11745864_x_at) / Fold change /veh SAMD14 (11745864_x_at) / RFU NPB (11741838_a_at) / Fold change /veh NPB (11741838_a_at) / RFU TMPRSS6 (11731388_a_at) / Fold change /veh TMPRSS6 (11731388_a_at) / RFU KRTAP10-2 (11738614_at) / Fold change /veh KRTAP10-2 (11738614_at) / RFU ARHGAP8 /// PRR5-ARHGAP8 (11727945_x_at) / Fold change /veh ARHGAP8 /// PRR5-ARHGAP8 (11727945_x_at) / RFU KRTAP5-7 /// NADSYN1 (11734609_at) / Fold change /veh KRTAP5-7 /// NADSYN1 (11734609_at) / RFU RASL12 (11751679_a_at) / Fold change /veh RASL12 (11751679_a_at) / RFU CDKN2B (11736163_a_at) / Fold change /veh CDKN2B (11736163_a_at) / RFU PRF1 (11729649_at) / Fold change /veh PRF1 (11729649_at) / RFU, ZNF638 /// ZNF638-IT1 / Fold change vs veh, ZNF638 /// ZNF638-IT1 / RFU, PANK3 / Fold change vs veh, PANK3 / RFU, SH3YL1 / Fold change vs veh, SH3YL1 / RFU, ZEB2 / Fold change vs veh, ZEB2 / RFU, NRIP1 / Fold change vs veh, NRIP1 / RFU, PTTG1IP / Fold change vs veh, PTTG1IP / RFU, CAPN2 / Fold change vs veh, CAPN2 / RFU, MED14 / Fold change vs veh, MED14 / RFU, SNORA58 / Fold change vs veh, SNORA58 / RFU, C1orf63 / Fold change vs veh, C1orf63 / RFU, LRRFIP1 / Fold change vs veh, LRRFIP1 / RFU, NDUFAF7 / Fold change vs veh, NDUFAF7 / RFU, SLC12A2 / Fold change vs veh, SLC12A2 / RFU, IBTK / Fold change vs veh, IBTK / RFU, ESF1 / Fold change vs veh, ESF1 / Fold change vs veh, TMEM50B / RFU, TAOK1 / Fold change vs veh, TAOK1 / RFU, ACBD3 / Fold change vs veh, ACBD3 / RFU, TMA16 / Fold change vs veh, TMA16 / RFU, RWDD3 / Fold change vs veh, RWDD3 / RFU, BCAT1 / Fold change vs veh, BCAT1 / RFU, EDEM3 / Fold change vs veh, EDEM3 / RFU, TMEM33 / Fold change vs veh, TMEM33 / RFU, WDR75 / Fold change vs veh, WDR75 / RFU, AHCTF1 / Fold change vs veh, AHCTF1 / RFU, TFRC / Fold change vs veh, TFRC / RFU, ZDHHC17 / Fold change vs veh, ZDHHC17 / RFU, NOM1 / Fold change vs veh, NOM1 / RFU, ARL8B / Fold change vs veh, ARL8B / RFU, ZBTB11 / Fold change vs veh, ZBTB11 / RFU, TAMM41 / Fold change vs veh, TAMM41 / RFU, KIAA1704 /// LOC100996395 / Fold change vs veh, KIAA1704 /// LOC100996395 / RFU, ING1 / Fold change vs veh, ING1 / RFU, TRMT61B / Fold change vs veh, TRMT61B / RFU, FUBP3 / Fold change vs veh, FUBP3 / RFU, TP53 / Fold change vs veh, TP53 / RFU, TNKS2 / Fold change vs veh, TNKS2 / RFU, ZFP14 / Fold change vs veh, ZFP14 / RFU, ACTR2 / Fold change vs veh, ACTR2 / RFU, PPP3R1 / Fold change vs veh, PPP3R1 / RFU, PIK3R1 / Fold change vs veh, PIK3R1 / RFU, HNRNPA1 / Fold change vs veh, HNRNPA1 / RFU, RNF170 / Fold change vs veh, RNF170 / RFU, ZNF28 / Fold change vs veh, ZNF28 / RFU, RNGTT / Fold change vs veh, RNGTT / RFU, OGT / Fold change vs veh, OGT / RFU, BRD1 / Fold change vs veh, BRD1 / RFU, MARS / Fold change vs veh, MARS / RFU, ZNF655 / Fold change vs veh, ZNF655 / RFU, FAHD1 / Fold change vs veh, FAHD1 / RFU, BDP1 / Fold change vs veh, BDP1 / RFU, LRRCC1 / Fold change vs veh, LRRCC1 / RFU, ARID1A / Fold change vs veh, ARID1A / RFU, ZNF146 / Fold change vs veh, ZNF146 / RFU, ZNF330 / Fold change vs veh, ZNF330 / RFU, GPN3 / Fold change vs veh, GPN3 / RFU, C9orf123 / Fold change vs veh, C9orf123 / RFU, N4BP2L2 / Fold change vs veh, N4BP2L2 / RFU, ARFIP1 / Fold change vs veh, ARFIP1 / RFU, FAM179B / Fold change vs veh, FAM179B / RFU, BCL10 / Fold change vs veh, BCL10 / RFU, UHRF1BP1L / Fold change vs veh, UHRF1BP1L / RFU, BET1 / Fold change vs veh, BET1 / RFU, CNOT2 / Fold change vs veh, CNOT2 / RFU, ZNF268 / Fold change vs veh, ZNF268 / Fold change vs veh, ZNF507 / RFU, DGCR2 / Fold change vs veh, DGCR2 / RFU, WDSUB1 / Fold change vs veh, WDSUB1 / Fold change vs veh, HSP90B1 /// MIR3652 / RFU, ADSS / Fold change vs veh, ADSS / RFU, GK / Fold change vs veh, GK / RFU, ZNF148 / Fold change vs veh, ZNF148 / RFU, TAF9 / Fold change vs veh, TAF9 / RFU, SLC1A5 / Fold change vs veh, SLC1A5 / RFU, SLMO2 / Fold change vs veh, SLMO2 / RFU, ABCC4 / Fold change vs veh, ABCC4 / RFU, LOC101060439 /// RAP1B / Fold change vs veh, LOC101060439 /// RAP1B / RFU, RFX7 / Fold change vs veh, RFX7 / RFU, GTPBP10 / Fold change vs veh, GTPBP10 / RFU, CNEP1R1 / Fold change vs veh, CNEP1R1 / RFU, BIVM-ERCC5 /// ERCC5 / Fold change vs veh, BIVM-ERCC5 /// ERCC5 / RFU, ILF3 / Fold change vs veh, ILF3 / RFU 11762660_at / Fold change /veh 11762660_at / RFU VCAN (11757783_s_at) / Fold change /veh VCAN (11757783_s_at) / RFU DDX43 (11728927_at) / Fold change /veh DDX43 (11728927_at) / RFU KRT8 (11758188_x_at) / Fold change /veh KRT8 (11758188_x_at) / RFU NKD1 (11759106_at) / Fold change /veh NKD1 (11759106_at) / RFU SRD5A1 (11742802_a_at) / Fold change /veh SRD5A1 (11742802_a_at) / RFU TPSAB1 /// TPSB2 (11721975_s_at) / Fold change /veh TPSAB1 /// TPSB2 (11721975_s_at) / RFU GSTM3 (11746129_a_at) / Fold change /veh GSTM3 (11746129_a_at) / RFU IL23R (11737362_x_at) / Fold change /veh IL23R (11737362_x_at) / RFU TMEM51 (11727254_a_at) / Fold change /veh TMEM51 (11727254_a_at) / RFU PIWIL2 (11732686_x_at) / Fold change /veh PIWIL2 (11732686_x_at) / RFU ORM1 (11744905_x_at) / Fold change /veh ORM1 (11744905_x_at) / RFU CCDC152 (11743942_at) / Fold change /veh CCDC152 (11743942_at) / RFU ECM1 (11717891_a_at) / Fold change /veh ECM1 (11717891_a_at) / RFU IL23R (11748794_a_at) / Fold change /veh IL23R (11748794_a_at) / RFU TNFAIP8L3 (11732012_x_at) / Fold change /veh TNFAIP8L3 (11732012_x_at) / RFU MBOAT4 (11741988_at) / Fold change /veh MBOAT4 (11741988_at) / RFU 11764193_at / Fold change /veh 11764193_at / RFU TMEM53 (11763286_at) / Fold change /veh TMEM53 (11763286_at) / RFU MAGEB2 (11727129_at) / Fold change /veh MAGEB2 (11727129_at) / RFU TMEM200A (11744735_a_at) / Fold change /veh TMEM200A (11744735_a_at) / RFU CCDC152 (11751479_a_at) / Fold change /veh CCDC152 (11751479_a_at) / RFU FAM211A (11726209_a_at) / Fold change /veh FAM211A (11726209_a_at) / RFU RGS16 (11746705_a_at) / Fold change /veh RGS16 (11746705_a_at) / RFU VCAN (11755009_s_at) / Fold change /veh VCAN (11755009_s_at) / RFU RHOB (11743442_s_at) / Fold change /veh RHOB (11743442_s_at) / RFU RGS16 (11720943_a_at) / Fold change /veh RGS16 (11720943_a_at) / RFU RGS16 (11720944_at) / Fold change /veh RGS16 (11720944_at) / RFU, VPS4B / Fold change vs veh, VPS4B / RFU, CREB1 / Fold change vs veh, CREB1 / RFU, DNAJC13 / Fold change vs veh, DNAJC13 / RFU, GNAQ / Fold change vs veh, GNAQ / RFU, CDK5R1 / Fold change vs veh, CDK5R1 / RFU, ZRANB3 / Fold change vs veh, ZRANB3 / RFU, CUL4A / Fold change vs veh, CUL4A / RFU, CCNY / Fold change vs veh, CCNY / RFU, UFL1 / Fold change vs veh, UFL1 / RFU, COG3 / Fold change vs veh, COG3 / RFU, DIAPH2 / Fold change vs veh, DIAPH2 / RFU, SKA2 / Fold change vs veh, SKA2 / RFU, AFF3 / Fold change vs veh, AFF3 / RFU, LMF1 / Fold change vs veh, LMF1 / RFU, IPO11 / Fold change vs veh, IPO11 / RFU, DFFB / Fold change vs veh, DFFB / RFU, FOXP1 / Fold change vs veh, FOXP1 / RFU, CARD8 / Fold change vs veh, CARD8 / RFU, STRN3 / Fold change vs veh, STRN3 / RFU, ADK / Fold change vs veh, ADK / RFU, RASSF2 / Fold change vs veh, RASSF2 / RFU, WIPF1 / Fold change vs veh, WIPF1 / RFU, LARP1B / Fold change vs veh, LARP1B / RFU, RASA1 / Fold change vs veh, RASA1 / RFU, RB1 / Fold change vs veh, RB1 / RFU, PPFIA1 / Fold change vs veh, PPFIA1 / RFU, MAT2A / Fold change vs veh, MAT2A / RFU, CCT5 / Fold change vs veh, CCT5 / RFU, WDR92 / Fold change vs veh, WDR92 / RFU, CUX1 / Fold change vs veh, CUX1 / RFU, TTC7A / Fold change vs veh, TTC7A / RFU, TMEM135 / Fold change vs veh, TMEM135 / RFU, DEPTOR / Fold change vs veh, DEPTOR / RFU, CPM / Fold change vs veh, CPM / RFU, DNAJB6 / Fold change vs veh, DNAJB6 / RFU, CACNA2D3 / Fold change vs veh, CACNA2D3 / RFU, DTX4 / Fold change vs veh, DTX4 / RFU, TFCP2 / Fold change vs veh, TFCP2 / RFU, GMCL1 /// GMCL1P1 / Fold change vs veh, GMCL1 /// GMCL1P1 / RFU, AEBP2 / Fold change vs veh, AEBP2 / RFU, SNHG1 /// SNORD22 /// SNORD25 /// SNORD26 /// SNORD27 /// SNORD28 /// SNORD29 /// SNORD31 / Fold change vs veh, SNHG1 /// SNORD22 /// SNORD25 /// SNORD26 /// SNORD27 /// SNORD28 /// SNORD29 /// SNORD31 / Fold change (Aza/veh), C12orf56 (ProbeSet 11735607_a_at) / Fold change (ACY-1035/veh), C12orf56 (ProbeSet 11735607_a_at) / Fold change (Aza/veh), FGFR1OP (ProbeSet 11751329_s_at) / Fold change (ACY-1035/veh), FGFR1OP (ProbeSet 11751329_s_at) / Fold change (Aza/veh), VPS36 (ProbeSet 11739960_a_at) / Fold change (ACY-1035/veh), VPS36 (ProbeSet 11739960_a_at) / RFU SYPL1 (11715823_x_at) / Fold change /veh SYPL1 (11715823_x_at) / RFU IGFBP7 (11715501_s_at) / Fold change /veh IGFBP7 (11715501_s_at) / RFU REEP3 (11722064_at) / Fold change /veh REEP3 (11722064_at) / RFU IGLL1 (11728026_x_at) / Fold change /veh IGLL1 (11728026_x_at): dose or concentration left out as unconfirmed
Conditions: ProbeSet 11725885_a_at; LIST B

Nc1ncn([C@@H]2O[C@H](CO)[C@@H](O)[C@H]2O)c(=O)n1 [azacitidine]
RFU, CNEP1R1: 65.19 RFU
